{
  "source": "patent US9260481B2",
  "about": "“Peptide derivatives as antibiotics” (priority 2011, dated 2016)",
  "key": {"Cytotoxicity test (MTS)": {"assay": "Cytotoxicity test (MTS)", "assay_type": "cell-based", "conditions": "human; for CC50 at 72 h: MTS; for viability at 72 h: dose of up to 100 μg/mL, read-out: cell viability", "procedure": "The cytotoxicity of the Odilomycins A-C was investigated against Human colon adenocarcinoma (HT29) cells and Human normal lung fibroblasts (MRC-5) cells. 200 μL of the cell suspension of HT29 (human colorectal adenocarcinoma) prepared in RPMI 1640+1% L-Glutamine supplemented with 10% (v/v) fetal calf serum and 200 μL of the cell suspension of MRC5 (human lung fibroblast) prepared in Dulbecco's modified Eagle's medium supplemented with 25 mM glucose and 10% (v/v) fetal calf serum were inoculated into 96-well plates.\nThe inoculating cell number was 800 cells per well for HT29 and 2100 cells per well for MRC-5. The microplates were incubated at 37° C. for 24 h with 5% of CO2.\nTwenty four hours later, Odilomycin A, B or C dissolved in water were added for 72 h at a final concentration from 0.78 μg/mL to 100 μg/mL in a fixed volume of water (1% final concentration). […] Experiments were done in triplicate."}, "S. aureus ATCC 13709": {"tested_on": "S. aureus ATCC 13709", "assay": "Bacterial killing curves (time-to-kill)", "assay_type": "cell-based, Staphylococcus aureus", "conditions": "growing S. aureus ATCC 13709, at four-fold the MIC", "procedure": "Bacterial killing curves were carried out by inoculating S. aureus ATCC 13709 and P. aeruginosa ATCC 27853 with Odilomycin A concentration equal to four-fold the MIC. […] S. aureus and P. aeruginosa inoculi were prepared from colonies grown overnight in MHB. Antibiotics concentrations in the flask were adjusted in MHB according to the desired concentration. Culture tubes containing 10 mL were inoculated with S. aureus or P. aeruginosa at an approximate inoculum of 10^5 CFU/mL. Samples were drawn and bacteria were counted at 0, 1, 2, 3, 4, 6 and 24 h of incubation at 37° C. Thus, after vortexing the culture tubes, two 50 μL samples were removed and serially diluted with MHB. After each dilution step, 20 μL was plated onto LB agar plates, which were incubated for 24 h at 37° C. Afterwards the colonies were counted and back-extrapolated to the original volume to determine the initial concentration (CFU/mL)."}, "P. aeruginosa ATCC 27853": {"tested_on": "P. aeruginosa ATCC 27853", "assay": "Acute lethal infection in mice", "assay_type": "in vivo, BALB/c mice", "conditions": "mice, P. aeruginosa 8.6 log10 CFU/mouse IP, n=6", "procedure": "Female BALB/c mice ordered from Harlan Laboratories (Indianapolis, Ind.) weighing 19-21 g were used in experiments of acute lethal infection. Mice were fully immunocompetent. Infection was induced by inoculating intraperitoneally in mice a bacterial suspension of P. aeruginosa ATCC 27853. The bacterial challenges (8.6 log10 CFU/mouse) were given suspended in 0.1 mL sterile saline. Treatments were administered once 1 hour after challenge via IV injection (Tobramycin was administered via IP injection immediately after challenge) (Table 13). Mortality was tracked out to 2 days post challenge. Animals that remained surviving at the end of the study were humanely euthanized."}, "[1]": {"tested_on": "S. aureus Smith ATCC 13709", "assay": "Acute lethal infection in mice", "assay_type": "in vivo, ICR mice", "conditions": "for Survival of all treated mice: S. aureus infection; for Animal deaths Day 0 / Animal deaths Day 1 / Animal deaths Day 3 / Animal deaths Day 4 / Animal deaths Day 5 / Animal deaths Day 2: mice, S. aureus 5 log10 CFU/mouse IP, n=6", "procedure": "Female ICR mice ordered from Harlan Laboratories (Indianapolis, Ind.) weighing 19-21 g were used in experiments of acute lethal infection. Mice were fully immunocompetent. Infection was induced by inoculating intraperitoneally in mice a bacterial suspension of S. aureus Smith ATCC 13709. The bacterial challenges (ca 5 log10 CFU/mouse) were given suspended in 0.5 mL of 20% hog mucin. […] Mortality was tracked out to 5 days post challenge. Animals that remained surviving at the end of the study were humanely euthanized."}, "K. pneumoniae ATCC 43816": {"tested_on": "K. pneumoniae ATCC 43816", "assay_type": "cell-based, Klebsiella pneumoniae", "conditions": "ATCC 43816", "source_text": "Vancomycin, rifampicin, kanamycin, gentamicin, ampicillin, ciprofloxacin and tetracycline (Sigma-Aldrich) were provided as standard powders by the manufacturers."}, "Bacteroides fragilis": {"tested_on": "Bacteroides fragilis", "assay": "microbe, parasite or virus in culture", "procedure": "(§1) The minimal inhibitory concentrations (MIC) were determined according to the Clinical and Laboratory Standards Institute (CLSI) conditions guidelines detailed in Table 7. Assays were performed in triplicate.\n(§2) Preparation of Inocula. Five to 10 well-isolated colonies were picked and resuspended in 3 ml sterile saline. The inoculum was re-suspended by vigorous shaking on a vortex mixer for 15 s. Turbidity was adjusted to McFarland standard 0.5 ([…]). The inoculum was further diluted in the appropriate media (Table 7) to give a final inoculum in each well of ˜2-8×10^5 CFU/ml.\n(§3) Addition of Test Article. Stock solutions of Odilomycin A or comparator were diluted in the appropriate media to give a maximum starting concentration of 50 μg/mL in the assay. 50 μL of medium was dispensed into each well in columns two to 12 of a 96 well plate. 100 μL of the appropriate test compound solution (100 μg/mL) was dispensed into each well in column one. In the case of M. catarrhalis, M. haemolytica and P. multocida these values were doubled (a final assay volume of 200 μL was used). […] Columns 11 and 12 served as positive (no drug or test article, inoculum added), and negative (no drug, test article, or inoculum added) growth controls respectively.\n(§4) Addition of Bacterial Strains. 50 μL of each inoculum suspension was added to the appropriate wells, resulting in a final volume of 100 μL consisting of 50 μL diluted compound or diluents, and 50 μL of inoculum or broth alone."}, "Staphylococcus aureus": {"tested_on": "Staphylococcus aureus", "assay": "microbe, parasite or virus in culture", "conditions": "for Antibacterial activity (MIC): unit not given in table (MICs in μg/mL)", "procedure": "as §1, §2, §3, §4"}, "[2]": {"conditions": "HT29 colon adenocarcinoma cells"}, "[3]": {"conditions": "MRC-5 normal lung fibroblasts, MRC-5 cells"}, "[4]": {"conditions": "Odilomycin A 7.5 mg/kg IV at 1 hr"}, "[5]": {"conditions": "Odilomycin A 15 mg/kg IV at 1 hr"}, "[6]": {"conditions": "Odilomycin A 1.0 mg/kg IV at 1 hr"}, "[7]": {"conditions": "Odilomycin A 2.5 mg/kg IV at 1 hr"}, "[8]": {"conditions": "Odilomycin A 5.0 mg/kg IV at 1 hr"}},
  "note": "Like-named read-outs stand apart in the source and are kept apart here. Numbered stars: 1 amine (or outer) side, 2 acyl side, 3 side chain; on linkers, the order of the positions; unused ones are H or OH. Square brackets hold non-standard residues; d marks the D form. Peptide text beside a SMILES is read from it. * marks the point of attachment. ξ: configuration not given here. X1 = NCC(O)CCC(N[*:1])C(=O)[*:2]; ΔZArg = N=C(N)NCC/C=C(\\N)C(=O)O; ξDab(3-OH) = NCC(O)C(N)C(=O)O; Orn = NCCC[CH](N)C(=O)O; NH(CH2)4NH2 = NCCCCN*",
  "data": [
    {"smiles": "N=C(N)NCC/C=C(\\NC(=O)C(CCC(O)CN)NC(=O)C(Cc1cnc[nH]1)NC(=O)C1CCCN1C(=O)C(CCCN)NC(=O)CNC(=O)C(NC(=O)C(NC(=O)C(N)CCCCN)C(O)CN)C(O)CN)C(=O)NC(CCC(O)CN)C(=O)NCCCCN", "note": "(stereo not drawn) [Odilomycin A, Lys-(3-hydroxy-2,4-diaminobutanoic acid)-(3-hydroxy-2,4-diaminobutanoic acid)-Gly-Ornithine-Pro-His-(5-hydroxylysine)-(2,3-dehydroarginine)-(5-hydroxylysine)-(1,4-diaminobutane)] (H-K[ξDab(3-OH)][ξDab(3-OH)]G[Orn]PH[X1][ΔZArg][X1]-{NH(CH2)4NH2}; configuration not given here)", "values": [
      {"measurement": "CC50 at 72 h", "setting": "Cytotoxicity test (MTS); [2]", "value": "> 100", "unit": "µg/mL"},
      {"measurement": "viability at 72 h", "setting": "Cytotoxicity test (MTS); [2]", "value": 100, "unit": "%"},
      {"measurement": "CC50 at 72 h", "setting": "Cytotoxicity test (MTS); [3]", "value": "> 100", "unit": "µg/mL"},
      {"measurement": "viability at 72 h", "setting": "Cytotoxicity test (MTS); [3]", "value": 100, "unit": "%"},
      {"measurement": "Time to kill 100% of bacteria", "setting": "S. aureus ATCC 13709", "value": "≤ 3", "unit": "h"},
      {"measurement": "Animal deaths Day 0", "setting": "P. aeruginosa ATCC 27853; [4]", "value": 0},
      {"measurement": "Animal deaths Day 1", "setting": "P. aeruginosa ATCC 27853; [4]", "value": 4},
      {"measurement": "Animal deaths Day 2", "setting": "P. aeruginosa ATCC 27853; [4]", "value": 1},
      {"measurement": "Animal deaths Day 0", "setting": "P. aeruginosa ATCC 27853; [5]", "value": 0},
      {"measurement": "Animal deaths Day 2", "setting": "P. aeruginosa ATCC 27853; [5]", "value": 4},
      {"measurement": "Survival of all treated mice", "setting": "[1]; Odilomycin A 2.5 mg/kg IV", "value": "survived up to 5 days after infection"},
      {"measurement": "Survival of all treated mice", "setting": "[1]; Odilomycin A 5.0 mg/kg IV", "value": "survived up to 5 days after infection"},
      {"measurement": "Animal deaths Day 0", "setting": "[1]; [6]", "value": 0},
      {"measurement": "Animal deaths Day 1", "setting": "[1]; [6]", "value": 0},
      {"measurement": "Animal deaths Day 3", "setting": "[1]; [6]", "value": 0},
      {"measurement": "Animal deaths Day 4", "setting": "[1]; [6]", "value": 0},
      {"measurement": "Animal deaths Day 5", "setting": "[1]; [6]", "value": 0},
      {"measurement": "Animal deaths Day 0", "setting": "[1]; [7]", "value": 0},
      {"measurement": "Animal deaths Day 1", "setting": "[1]; [7]", "value": 0},
      {"measurement": "Animal deaths Day 2", "setting": "[1]; [7]", "value": 0},
      {"measurement": "Animal deaths Day 3", "setting": "[1]; [7]", "value": 0},
      {"measurement": "Animal deaths Day 4", "setting": "[1]; [7]", "value": 0},
      {"measurement": "Animal deaths Day 5", "setting": "[1]; [7]", "value": 0},
      {"measurement": "Animal deaths Day 0", "setting": "[1]; [8]", "value": 0},
      {"measurement": "Animal deaths Day 1", "setting": "[1]; [8]", "value": 0},
      {"measurement": "Animal deaths Day 2", "setting": "[1]; [8]", "value": 0},
      {"measurement": "Animal deaths Day 3", "setting": "[1]; [8]", "value": 0},
      {"measurement": "Animal deaths Day 4", "setting": "[1]; [8]", "value": 0},
      {"measurement": "Animal deaths Day 5", "setting": "[1]; [8]", "value": 0},
      {"measurement": "MIC antibiotic alone", "setting": "K. pneumoniae ATCC 43816", "value": 25, "unit": "µg/mL"},
      {"measurement": "MIC", "setting": "Bacteroides fragilis", "value": 1.56, "unit": "µg/mL"},
      {"measurement": "MICs", "setting": "Staphylococcus aureus", "value": "< 1", "unit": "µg/mL"},
      {"measurement": "Antibacterial activity (MIC)", "setting": "Staphylococcus aureus; S. aureus multiresistant clinical isolate 16666", "value": "<0.19"},
      {"measurement": "Antibacterial activity (MIC)", "setting": "Staphylococcus aureus; S. aureus multiresistant clinical isolate 20364", "value": 0.78},
      {"measurement": "Antibacterial activity (MIC)", "setting": "Staphylococcus aureus; S. aureus multiresistant clinical isolate 20681", "value": 1.56},
      {"measurement": "Antibacterial activity (MIC)", "setting": "Staphylococcus aureus; S. aureus multiresistant clinical isolate 21840", "value": 0.39},
      {"measurement": "Antibacterial activity (MIC)", "setting": "Staphylococcus aureus; S. aureus multiresistant clinical isolate 23305", "value": 0.78}
    ]}
  ]
}
